From patent publication US8748373B2, “Hepatitis B virus compositions and methods of use” (priority 2007, dated 2014)

Experiments:
[1] = tested on: HBV; conditions: patients chronically infected with HBV; cited from earlier work
[2] = tested on: HDV; test: Inhibition of HDV infection of primary human hepatocytes, antigenomic HDV RNA by real-time PCR; assay type: cell-based; conditions: for Inhibition of HDV replication: 50 nM final concentration, primary human hepatocytes, 7 days
Description: (§1) In order to test inhibitory activity of the IA and related proteins, primary human hepatocytes infected in the presence of 5% polyethylene glycol 8000 (Sigma) were used with in vitro assembled HDV at a multiplicity of 10 genome equivalents (GE) per cell, or by HBV at a multiplicity of 50 GE/cell. […] One related protein was the S1S2, lacking the Fc domain (FIG. 1B). Another was a synthetic peptide corresponding to positions 2-48 of the ayw PreS1, with myristoylation at the N terminal glycine as described in Engelke, et al., 2006, Hepatology, 43:750-760. After 7-8 days total, cell RNA was extracted and HDV antigenomic RNA and HBV RNA were quantitated using real-time PCR.
Others have shown that peptides based on the N terminus of HBV preS1 are able to interfere with infection of primary hepatocytes and of HepaRG cells, a cell line made from a differentiated liver tumor (Gripon, et al., 2005, J. Virol., 79:1613-1622, Gripon, et al., 2002, Proc. Natl. Acad. Sci., USA 99:15655-15660). […] Secreted IAs were tested for their ability to interfere with the infection of primary human hepatocytes by HDV. For these studies the source of IA was simple dilutions of the media from transiently transfected cells that both expressed and secreted the IA. To assess HDV replication the total RNA was extracted after 7 days and antigenomic RNA was quantitated by real-time PCR.

[3] = Ultracentrifugation of media to test whether released IA is a soluble protein; assay type: physicochemical; conditions: conditions that pellet HDV and HBV subviral particles
Description: In addition, experiments were designed to tested whether the released IA was actually a soluble protein. Media samples containing albumin and secreted […] were clarified by low speed centrifugation and then subjected to ultracentrifugation, using conditions that pellet HDV and HBV subviral particles. It was observed that about >85% of the albumin and S1S2-IA remained in the supernatant. Without wishing to be bound by any particular theory, it is believed that because the IAs behaved similar to albumin, than IAs were soluble proteins.

[4] = tested on: HBV; test: Inhibition of HBV infection of primary human hepatocytes, HBV RNA by real-time PCR; assay type: cell-based, Hepatitis B virus
Description: as §1
In parallel with the experiment shown in FIG. 4B, experiments were designed to determined whether S1S2-IA would also act on HBV infection.

[5] = tested on: HBV; conditions: in vivo; cited from earlier work

C=C1[C@H](CO)[C@@H](O)C[C@@H]1n1cnc2c(=O)[nH]c(N)nc21 [Entecavir]
Suppression of HBV levels in serum [1]: 100,000 fold

S1-IA: immunoadhesin: HBV preS1 domain (1-119, adw2) fused N terminally to Fc region of a rabbit IgG heavy chain
Inhibition of HDV replication [2]: 90%

S1S2-IA: immunoadhesin: HBV preS1 plus preS2 domains fused to Fc region of a rabbit IgG heavy chain
Inhibition of HDV replication [2]: 90%
Effect of 30 minute pretreatment on level of inhibition of HDV ([2]; pretreatment in addition to treatment during infection): did not significantly increase the level of inhibition
Fraction remaining in the supernatant after ultracentrifugation [3]: > 85%
Inhibition of HBV infection compared with HDV infection ([4]; parallel experiments): not significantly different
Inhibition of HBV infection ([4]; primary human hepatocytes, HBV RNA): there was inhibition

acylated peptide: synthetic peptide corresponding to positions 2-48 of the ayw PreS1, with myristoylation at the N terminal glycine [reference compound]
Inhibition of HDV replication compared with S1-IA and S1S2-IA ([2]; primary human hepatocytes, 2, 10 and 50 nM): more inhibition than the two IA

α-interferon
Patients in whom effective [5]: about 33%
